From US20190284136A1, “INDOLINE DERIVATIVES” (ViiV HEALTHCARE UK LIMITED, priority 2016, published 2019) come the findings set out here.

The structures appear in SMILES notation.

The test has as its system HIV. Description: Table 1 IC50 of the examples (assay method not given; patent concerns inhibiting HIV replication). The test is classed as cell-based. The note with it: Human immunodeficiency virus 1.
As a reminder, the IC50 is the concentration that gives 50% inhibition. Low readings indicate higher potency, high ones lower potency. For `Cc1cc2c(c(-c3cc(F)c4c(c3C)CCCO4)c1[C@H](OC(C)(C)C)C(=O)O)CCN2C(=O)c1ccc2c(c1)OCC2` (atropisomer, axis not shown) [Example 178, (S)-2-(tert-Butoxy)-2-((R)-1-(2,3-Dihydrobenzofuran-6-carbonyl)-4-(8-fluoro-5-methylchroman-6-yl)-6-methylindolin-5-yl)acetic acid], the IC50 is 4 nM.
As to `Cc1nc2cccc(C(=O)N3CCc4c3cc(C)c([C@H](OC(C)(C)C)C(=O)O)c4-c3cc(F)c4c(c3C)CCCO4)c2o1` (atropisomer, axis not shown) [Example 179, (S)-2-(tert-Butoxy)-2-((R)-4-(8-Fluoro-5-methylchroman-6-yl)-6-methyl-1-(2-methylbenzo[d]oxazole-7-carbonyl)indolin-5-yl)acetic acid], half-maximal inhibition (IC50) required 12 nM.
In turn, `COc1c(C(=O)N2CCc3c2cc(C)c([C@H](OC(C)(C)C)C(=O)O)c3-c2cc(F)c3c(c2C)CCCO3)cccc1C(F)(F)F` (atropisomer, axis not shown) [Example 180, (S)-2-(tert-Butoxy)-2-((R)-4-(8-Fluoro-5-methylchroman-6-yl)-1-(2-methoxy-3-(trifluoromethyl)benzoyl)-6-methylindolin-5-yl)acetic acid] registered an IC50 of 5 nM.
As to `COc1c(F)cccc1C(=O)N1CCc2c1cc(C)c([C@H](OC(C)(C)C)C(=O)O)c2-c1ccc2c(c1C)CCCO2` (atropisomer, axis not shown) [Example 181, (S)-2-(tert-Butoxy)-2-((R)-1-(3-fluoro-2-methoxybenzoyl)-6-methyl-4-(5-methylchroman-6-yl)indolin-5-yl)acetic acid], inhibition was half-maximal at 2 nM (IC50).
The result for `Cc1cc2c(c(-c3ccc4c(c3C)CCCO4)c1[C@H](OC(C)(C)C)C(=O)O)CCN2C(=O)c1cccc2c1OCCO2` (atropisomer, axis not shown) [Example 182, (S)-2-(tert-Butoxy)-2-((R)-1-(2,3-dihydrobenzo[b][1,4]dioxine-5-carbonyl)-6-methyl-4-(5-methylchroman-6-yl)indolin-5-yl)acetic acid] reads 5 nM.
As to `COc1cc(Cl)ccc1C(=O)N1CCc2c1cc(C)c([C@H](OC(C)(C)C)C(=O)O)c2-c1ccc2c(c1C)CCCO2` (atropisomer, axis not shown) [Example 183, (S)-2-(tert-Butoxy)-2-((R)-1-(4-chloro-2-methoxybenzoyl)-6-methyl-4-(5-methylchroman-6-yl)indolin-5-yl)acetic acid], the IC50 was found to be 4 nM.
The result for `COc1cc(C(=O)N2CCc3c2cc(C)c([C@H](OC(C)(C)C)C(=O)O)c3-c2ccc3c(c2C)CCCO3)ccc1C` (atropisomer, axis not shown) [Example 184, (S)-2-(tert-Butoxy)-2-((R)-1-(3-methoxy-4-methylbenzoyl)-6-methyl-4-(5-methylchroman-6-yl)indolin-5-yl)acetic acid] reads 4 nM; that for `COc1ccc(C(=O)N2CCc3c2cc(C)c([C@H](OC(C)(C)C)C(=O)O)c3-c2ccc3c(c2C)CCCO3)c(OC)c1` (atropisomer, axis not shown) [Example 185, (S)-2-(tert-Butoxy)-2-((R)-1-(2,4-dimethoxybenzoyl)-6-methyl-4-(5-methylchroman-6-yl)indolin-5-yl)acetic acid], 9 nM.
The molecule `COc1ccc(C(=O)N2CCc3c2cc(C)c([C@H](OC(C)(C)C)C(=O)O)c3-c2ccc3c(c2C)CCCO3)cc1OC` (atropisomer, axis not shown) [Example 186, (S)-2-(tert-Butoxy)-2-((R)-1-(3,4-dimethoxybenzoyl)-6-methyl-4-(5-methylchroman-6-yl)indolin-5-yl)acetic acid] showed an IC50 of 6 nM.
For `COc1ccc(C(=O)N2CCc3c2cc(C)c([C@H](OC(C)(C)C)C(=O)O)c3-c2ccc3c(c2C)CCCO3)cc1F` (atropisomer, axis not shown) [Example 187, (S)-2-(tert-Butoxy)-2-((R)-1-(3-fluoro-4-methoxybenzoyl)-6-methyl-4-(5-methylchroman-6-yl)indolin-5-yl)acetic acid] the value was 6 nM; for `Cc1ccccc1C(=O)N1CCc2c1cc(C)c([C@H](OC(C)(C)C)C(=O)O)c2-c1ccc2c(c1C)CCCO2` (atropisomer, axis not shown) [Example 188, (S)-2-(tert-Butoxy)-2-((R)-6-methyl-1-(2-methylbenzoyl)-4-(5-methylchroman-6-yl)indolin-5-yl)acetic acid], 5 nM; for `Cc1cc2c(c(-c3ccc4c(c3C)CCCO4)c1[C@H](OC(C)(C)C)C(=O)O)CCN2C(=O)c1cc(F)cc(F)c1` (atropisomer, axis not shown) [Example 189, (S)-2-(tert-Butoxy)-2-((R)-1-(3,5-difluorobenzoyl)-6-methyl-4-(5-methylchroman-6-yl)indolin-5-yl)acetic acid], 6 nM.
The result for `COc1ccc(C(=O)N2CCc3c2cc(C)c([C@H](OC(C)(C)C)C(=O)O)c3-c2ccc3c(c2C)CCCO3)cc1C` (atropisomer, axis not shown) [Example 190, (S)-2-(tert-Butoxy)-2-((R)-1-(4-methoxy-3-methylbenzoyl)-6-methyl-4-(5-methylchroman-6-yl)indolin-5-yl)acetic acid] reads 124 nM; that for `Cc1ccc(C(=O)N2CCc3c2cc(C)c([C@H](OC(C)(C)C)C(=O)O)c3-c2ccc3c(c2C)CCCO3)cn1` (atropisomer, axis not shown) [Example 191, (S)-2-(tert-Butoxy)-2-((R)-6-methyl-4-(5-methylchroman-6-yl)-1-(6-methylnicotinoyl)indolin-5-yl)acetic acid], 868 nM; that for `COc1ccc(C(=O)N2CCc3c2cc(C)c([C@H](OC(C)(C)C)C(=O)O)c3-c2cc(OC)c3c(c2C)CCCO3)cc1C` (atropisomer, axis not shown) [Example 192, (S)-2-(tert-Butoxy)-2-((R)-1-(4-methoxy-3-methylbenzoyl)-4-(8-methoxy-5-methylchroman-6-yl)-6-methylindolin-5-yl)acetic acid], 5 nM.
The molecule `COc1cc(-c2c3c(cc(C)c2[C@H](OC(C)(C)C)C(=O)O)N(C(=O)c2ccc(C)nc2)CC3)c(C)c2c1OCCC2` (atropisomer, axis not shown) [Example 193, (S)-2-(tert-Butoxy)-2-((R)-4-(8-methoxy-5-methylchroman-6-yl)-6-methyl-1-(6-methylnicotinoyl)indolin-5-yl)acetic acid] returned an IC50 of 9 nM.
The molecule `COc1ccc(C(=O)N2CCc3c2cc(C)c([C@H](OC(C)(C)C)C(=O)O)c3-c2cc(C)c3c(c2C)CCCO3)cc1C` (atropisomer, axis not shown) [Example 194, (S)-2-(tert-Butoxy)-2-((R)-4-(5,8-dimethylchroman-6-yl)-1-(4-methoxy-3-methylbenzoyl)-6-methylindolin-5-yl)acetic acid] came in with an IC50 of 43 nM.
`Cc1ccc(C(=O)N2CCc3c2cc(C)c([C@H](OC(C)(C)C)C(=O)O)c3-c2cc(C)c3c(c2C)CCCO3)cn1` (atropisomer, axis not shown) [Example 195, (S)-2-(tert-Butoxy)-2-((R)-4-(5,8-dimethylchroman-6-yl)-6-methyl-1-(6-methylnicotinoyl)indolin-5-yl)acetic acid] gave an IC50 of 121 nM.
